# Experimental data from BindingDB's records for doi:10.1021/ml400382p (Glaxosmithkline, 2013).
# pIC50: −log10 of the molar value.
# Assay: Inhibition of RIP1 in human U937 cells assessed as prevention of TNFalpha/zVAD.fmk-induced necrotic cell death preincubated for 30 to 60 mins followed by TNF-alpha induction measured after overnight incubation by Cell Titer-Glo luminescence assay
row,Structure (SMILES),pIC50
1,Nc1nccc2c(-c3ccc(NC(=O)Nc4cccc(C(F)(F)F)c4)cc3)cccc12,6.20
2,Nc1nccc2c(-c3ccc(NC(=O)Nc4ccc(F)c(C(F)(F)F)c4)cc3)cccc12,5.60
3,Nc1nccc2c(-c3ccc(NC(=O)Nc4cc(F)cc(C(F)(F)F)c4)cc3)cccc12,5.60
4,Nc1nccc2c(-c3ccc(NC(=O)Nc4cc(C(F)(F)F)ccc4F)cc3)cccc12,6.20
5,CC(C)(C)c1cc(NC(=O)Nc2ccc(-c3coc4ncnc(N)c34)cc2)no1,6.70
6,Nc1ncnc2occ(-c3ccc(NC(=O)Nc4cccc(Cl)c4)cc3)c12,5.10
7,CCc1cccc(NC(=O)Nc2ccc(-c3coc4ncnc(N)c34)cc2)c1,6.60
8,Nc1ncnc2occ(-c3ccc(NC(=O)Nc4ccc(Cl)c(C(F)(F)F)c4)cc3)c12,5.89
9,Nc1ncnc2occ(-c3ccc(NC(=O)Nc4cccc(C(F)(F)F)c4F)cc3)c12,5.00
10,Nc1ncnc2occ(-c3ccc(NC(=O)Nc4cc(F)cc(C(F)(F)F)c4)cc3)c12,5.30
11,Nc1ncnc2occ(-c3ccc(NC(=O)Nc4ccc(F)c(C(F)(F)F)c4)cc3)c12,5.89
12,O=C(Nc1cccc(-c2c[nH]c3ncc(-c4cn[nH]c4)cc23)c1)Nc1cc(C(F)(F)F)ccc1F,7.20
13,Nc1ccc(-c2cnc3[nH]cc(-c4cccc(NC(=O)Nc5cc(C(F)(F)F)ccc5F)c4)c3c2)cc1,7.80
14,CS(=O)(=O)c1cccc(-c2cnc3[nH]cc(-c4cccc(NC(=O)Nc5cc(C(F)(F)F)ccc5F)c4)c3c2)c1,7.30
15,NC(=O)c1cccc(-c2cnc3[nH]cc(-c4cccc(NC(=O)Nc5cc(C(F)(F)F)ccc5F)c4)c3c2)c1,7.20
16,O=C(Nc1cccc(-c2c[nH]c3ncc(-c4cccnc4)cc23)c1)Nc1cc(C(F)(F)F)ccc1F,8.20
17,CCS(=O)(=O)c1ccc(-c2cnc3[nH]cc(-c4cccc(NC(=O)Nc5cc(C(F)(F)F)ccc5F)c4)c3c2)cc1,7.60
18,O=C(Nc1cccc(-c2c[nH]c3ncc(-c4ccccc4)cc23)c1)NC1CCCC1,5.10
19,O=C(Nc1cccc(-c2c[nH]c3ncc(-c4ccccc4)cc23)c1)Nc1cc(C(F)(F)F)ccc1F,6.80
20,CC(=O)c1cccc(NC(=O)Nc2cccc(-c3c[nH]c4ncc(-c5ccccc5)cc34)c2)c1,6.49
21,COc1cccc(NC(=O)Nc2cccc(-c3c[nH]c4ncc(-c5ccccc5)cc34)c2)c1,6.40
22,O=C(Nc1cccc(-c2c[nH]c3ncc(-c4ccccc4)cc23)c1)Nc1cccc(C(F)(F)F)c1,7.10
23,O=C(Nc1cccc(-c2c[nH]c3ncc(-c4ccccc4)cc23)c1)Nc1cccc([N+](=O)[O-])c1,6.49
24,Nc1nccc2c(-c3ccc(NC(=O)Nc4cc(C(F)(F)F)ccc4Cl)cc3)cccc12,< 5.00
25,Nc1nccc2c(-c3ccc(NC(=O)Nc4ccc(Cl)c(C(F)(F)F)c4)cc3)cccc12,5.70
26,"O=C(Nc1ccccc1)Nc1cccc(-c2c[nH]c3ncc(-c4ccccc4)cc23)c1 [1-phenyl-3-(3-(5-phenyl-1H-pyrrolo[2,3-b]pyridin-3-yl)phenyl)urea]",6.22
27,"Nc1ncnc2occ(-c3ccc(NC(=O)Nc4cc(C(F)(F)F)cc(C(F)(F)F)c4)cc3)c12 [3-(4-{4-aminofuro[2,3-d]pyrimidin-5-yl}phenyl)-1-[3,5-bis(trifluoromethyl)phenyl]urea]",5.10
28,"Nc1ncnc2occ(-c3ccc(NC(=O)Nc4cccc(C(F)(F)F)c4)cc3)c12 [3-(4-{4-aminofuro[2,3-d]pyrimidin-5-yl}phenyl)-1-[3-(trifluoromethyl)phenyl]urea]",6.00
29,"Nc1ncnc2occ(-c3ccc(NC(=O)Nc4ccc5ccccc5c4)cc3)c12 [3-(4-{4-aminofuro[2,3-d]pyrimidin-5-yl}phenyl)-1-naphthalen-2-ylurea]",6.10
